# Experimental data from paper PMC8138772 (The Journal of Biological Chemistry, 2021).
# Entries after “also recorded” stand apart in the source; their conditions may differ. [ ]: non-standard residue; d: D form. The star is where a group is joined. Biotin = O=C1N[C@H]2[C@H](CS[C@H]2CCCCC(=O)*)N1; Cit = NC(=O)NCCC[C@H](N)C(=O)O
# Tests used:
# [1] = target: K562 αvβ6:mCherry cells (αvβ6 integrin) (Homo sapiens, UniProt P06756+P18564); type: binding
# K562 cells = type: binding
# in vitro = conditions: mouse, serum
# [2] = mouse
# normal mouse serum = conditions: 37 °C
# K562 αvβ6:mCherry cells (αvβ6 integrin), sequence (P06756 31-889 limits assumed): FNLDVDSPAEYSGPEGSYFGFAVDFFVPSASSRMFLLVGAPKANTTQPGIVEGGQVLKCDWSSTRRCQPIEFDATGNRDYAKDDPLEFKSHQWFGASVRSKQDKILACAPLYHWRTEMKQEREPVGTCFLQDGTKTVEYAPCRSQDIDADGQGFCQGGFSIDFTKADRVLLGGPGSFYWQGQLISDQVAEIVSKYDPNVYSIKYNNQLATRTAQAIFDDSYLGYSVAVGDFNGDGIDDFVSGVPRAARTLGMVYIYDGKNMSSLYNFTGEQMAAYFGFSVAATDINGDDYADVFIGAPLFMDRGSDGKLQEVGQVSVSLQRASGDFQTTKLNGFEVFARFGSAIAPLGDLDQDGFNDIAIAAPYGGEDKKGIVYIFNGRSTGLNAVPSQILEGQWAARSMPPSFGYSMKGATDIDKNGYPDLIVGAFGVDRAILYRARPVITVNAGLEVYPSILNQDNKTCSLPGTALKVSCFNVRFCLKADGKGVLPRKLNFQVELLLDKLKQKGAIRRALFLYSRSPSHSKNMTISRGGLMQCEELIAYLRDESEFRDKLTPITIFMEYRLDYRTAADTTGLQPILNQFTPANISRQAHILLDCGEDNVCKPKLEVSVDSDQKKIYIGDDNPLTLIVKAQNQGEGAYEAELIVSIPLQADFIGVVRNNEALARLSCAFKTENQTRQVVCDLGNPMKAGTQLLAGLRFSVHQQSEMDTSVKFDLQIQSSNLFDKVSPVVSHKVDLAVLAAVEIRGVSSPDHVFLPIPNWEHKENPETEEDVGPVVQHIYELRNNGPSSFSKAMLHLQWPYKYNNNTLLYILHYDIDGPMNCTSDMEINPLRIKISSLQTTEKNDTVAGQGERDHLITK
# K562 αvβ6:mCherry cells (αvβ6 integrin), sequence (P06756 891-1048 partner limits assumed): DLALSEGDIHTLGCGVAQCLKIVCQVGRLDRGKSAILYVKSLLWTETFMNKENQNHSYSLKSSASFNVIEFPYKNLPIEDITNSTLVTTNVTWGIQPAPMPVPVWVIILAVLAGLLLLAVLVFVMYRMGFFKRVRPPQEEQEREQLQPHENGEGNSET
# K562 αvβ6:mCherry cells (αvβ6 integrin), sequence (P18564 22-788 limits assumed): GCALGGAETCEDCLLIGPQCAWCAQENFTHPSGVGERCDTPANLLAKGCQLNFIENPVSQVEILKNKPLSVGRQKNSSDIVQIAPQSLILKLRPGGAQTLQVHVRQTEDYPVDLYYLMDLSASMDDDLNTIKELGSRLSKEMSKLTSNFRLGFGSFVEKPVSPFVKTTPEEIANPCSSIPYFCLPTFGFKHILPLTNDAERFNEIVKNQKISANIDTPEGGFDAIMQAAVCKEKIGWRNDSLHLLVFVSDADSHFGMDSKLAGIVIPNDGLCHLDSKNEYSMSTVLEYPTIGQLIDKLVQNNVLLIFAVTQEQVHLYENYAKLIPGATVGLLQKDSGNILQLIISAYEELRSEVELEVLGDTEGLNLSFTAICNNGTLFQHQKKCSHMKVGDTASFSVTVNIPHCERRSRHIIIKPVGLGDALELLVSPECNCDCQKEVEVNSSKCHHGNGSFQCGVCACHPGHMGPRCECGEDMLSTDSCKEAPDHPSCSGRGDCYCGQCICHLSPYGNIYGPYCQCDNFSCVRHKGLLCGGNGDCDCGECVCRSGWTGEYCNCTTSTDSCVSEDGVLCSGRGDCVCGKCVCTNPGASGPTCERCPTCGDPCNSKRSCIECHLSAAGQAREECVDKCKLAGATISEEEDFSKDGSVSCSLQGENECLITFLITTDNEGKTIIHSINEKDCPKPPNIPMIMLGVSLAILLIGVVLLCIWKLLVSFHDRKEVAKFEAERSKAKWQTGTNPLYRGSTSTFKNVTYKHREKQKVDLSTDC
compound,measurement,setting,value
CC(C)C[C@@H]1NC(=O)[C@H](CC(=O)O)NC(=O)CNC(=O)[C@H](CCCNC(=N)N)NC(=O)[C@H](CC(C)C)NC(=O)[C@H](CC(N)=O)NC(=O)[C@@H]2CCCN2C(=O)[C@H](C(C)C)NC(=O)[C@H](C)NC(=O)[C@@H](NC(=O)CCCC[C@@H]2SC[C@@H]3NC(=O)N[C@@H]32)CSc2c(F)c(F)c(c(F)c2F)-c2c(F)c(F)c(c(F)c2F)SC[C@@H](C(=O)N[C@@H](CCCNC(=N)N)C(=O)N[C@H](C(=O)N[C@@H](CCCCN)C(N)=O)[C@@H](C)O)NC(=O)[C@H](C(C)C)NC(=O)[C@H](CCCCN)NC(=O)[C@H](CCC(N)=O)NC(=O)[C@H](C)NC(=O)[C@H](CC(C)C)NC(=O)[C@H](C(C)C)NC(=O)[C@H](CCC(N)=O)NC1=O [C1C18 DFBP],binding to K562 αvβ6:mCherry cells (in words),[1],high affinity and specificity comparable to the original A20FMDV2 peptide
CC(C)C[C@@H]1NC(=O)[C@H](CC(=O)O)NC(=O)CNC(=O)[C@H](CCCNC(=N)N)NC(=O)[C@H](CC(C)C)NC(=O)[C@H](CC(N)=O)NC(=O)[C@@H]2CCCN2C(=O)[C@H](C(C)C)NC(=O)[C@H](C)NC(=O)[C@@H](NC(=O)CCCC[C@@H]2SC[C@@H]3NC(=O)N[C@@H]32)CSc2c(F)c(F)c(c(F)c2F)-c2c(F)c(F)c(c(F)c2F)SC[C@@H](C(=O)N[C@H](C(=O)N[C@@H](CCCCN)C(N)=O)[C@@H](C)O)NC(=O)[C@H](C)NC(=O)[C@H](C(C)C)NC(=O)[C@H](CCCCN)NC(=O)[C@H](CCC(N)=O)NC(=O)[C@H](C)NC(=O)[C@H](CC(C)C)NC(=O)[C@H](C(C)C)NC(=O)[C@H](CCC(N)=O)NC1=O [C1C19 DFBP],binding to parental K562 cells (in words),K562 cells,significantly bound to parental K562 cells at high concentrations
CC(C)C[C@@H]1NC(=O)[C@H](CC(=O)O)NC(=O)CNC(=O)[C@H](CCCNC(=N)N)NC(=O)[C@H](CC(C)C)NC(=O)[C@H](CC(N)=O)NC(=O)[C@@H]2CCCN2C(=O)[C@H](C(C)C)NC(=O)[C@H](C)NC(=O)[C@@H](NC(=O)CCCC[C@@H]2SC[C@@H]3NC(=O)N[C@@H]32)CSc2c(F)c(F)c(c(F)c2F)-c2c(F)c(F)c(c(F)c2F)SC[C@@H](C(=O)N[C@@H](CCCCN)C(N)=O)NC(=O)[C@H](CCCNC(=N)N)NC(=O)[C@H](C)NC(=O)[C@H](C(C)C)NC(=O)[C@H](CCCCN)NC(=O)[C@H](CCC(N)=O)NC(=O)[C@H](C)NC(=O)[C@H](CC(C)C)NC(=O)[C@H](C(C)C)NC(=O)[C@H](CCC(N)=O)NC1=O [C1C20 DFBP],binding to K562 αvβ6:mCherry cells (in words),[1],high affinity and specificity comparable to the original A20FMDV2 peptide
CC(C)C[C@@H]1NC(=O)[C@H](CC(=O)O)NC(=O)CNC(=O)[C@H](CCCNC(=N)N)NC(=O)[C@H](CC(C)C)NC(=O)[C@H](CC(N)=O)NC(=O)[C@@H]2CCCN2C(=O)[C@H](C(C)C)NC(=O)[C@@H](NC(=O)[C@H](CC(N)=O)NC(=O)CCCC[C@@H]2SC[C@@H]3NC(=O)N[C@@H]32)CSc2c(F)c(F)c(c(F)c2F)-c2c(F)c(F)c(c(F)c2F)SC[C@@H](C(=O)N[C@@H](CCCNC(N)=O)C(=O)N[C@H](C(=O)N[C@@H](CCCCN)C(=O)N[C@H](C)C(N)=O)[C@@H](C)O)NC(=O)[C@H](C(C)C)NC(=O)[C@H](CCCCN)NC(=O)[C@H](CCC(N)=O)NC(=O)[C@H](C)NC(=O)[C@H](CC(C)C)NC(=O)[C@H](C(C)C)NC(=O)[C@H](CCC(N)=O)NC1=O [C2C18 CitTKAD DFBP],half-life,in vitro,4.96 h
CC(C)C[C@@H]1NC(=O)[C@H](CC(=O)O)NC(=O)CNC(=O)[C@H](CCCNC(=N)N)NC(=O)[C@H](CC(C)C)NC(=O)[C@H](CC(N)=O)NC(=O)[C@@H]2CCCN2C(=O)[C@H](C(C)C)NC(=O)[C@@H](NC(=O)[C@H](CC(N)=O)NC(=O)CCCC[C@@H]2SC[C@@H]3NC(=O)N[C@@H]32)CSc2c(F)c(F)c(c(F)c2F)-c2c(F)c(F)c(c(F)c2F)SC[C@@H](C(=O)N[C@@H](CCCNC(=N)N)C(=O)N[C@H](C(=O)N[C@@H](CCCCN)C(N)=O)[C@@H](C)O)NC(=O)[C@H](C(C)C)NC(=O)[C@H](CCCCN)NC(=O)[C@H](CCC(N)=O)NC(=O)[C@H](C)NC(=O)[C@H](CC(C)C)NC(=O)[C@H](C(C)C)NC(=O)[C@H](CCC(N)=O)NC1=O [C2C18 DFBP],binding to K562 αvβ6:mCherry cells (in words),[1],high affinity and specificity comparable to the original A20FMDV2 peptide
CC(C)C[C@@H]1NC(=O)[C@H](CC(=O)O)NC(=O)CNC(=O)[C@H](CCCNC(=N)N)NC(=O)[C@H](CC(C)C)NC(=O)[C@H](CC(N)=O)NC(=O)[C@@H]2CCCN2C(=O)[C@H](C(C)C)NC(=O)[C@@H](NC(=O)[C@H](CC(N)=O)NC(=O)CCCC[C@@H]2SC[C@@H]3NC(=O)N[C@@H]32)CSc2c(F)c(F)c(c(F)c2F)-c2c(F)c(F)c(c(F)c2F)SC[C@@H](C(=O)N[C@H](CCCNC(=N)N)C(=O)N[C@H](C(=O)N[C@@H](CCCCN)C(=O)N[C@H](C)C(N)=O)[C@@H](C)O)NC(=O)[C@H](C(C)C)NC(=O)[C@H](CCCCN)NC(=O)[C@H](CCC(N)=O)NC(=O)[C@H](C)NC(=O)[C@H](CC(C)C)NC(=O)[C@H](C(C)C)NC(=O)[C@H](CCC(N)=O)NC1=O [C2C18 RDTKAD DFBP],"reduced binding fluorescence (maximal signal versus A20FMDV2, Fig. 3B)",[1],~60%
same,t1/2 of intact peptide in serum,[2],4.518 h
CC(C)C[C@@H]1NC(=O)[C@H](CC(=O)O)NC(=O)CNC(=O)[C@H](CCCNC(=N)N)NC(=O)[C@H](CC(C)C)NC(=O)[C@H](CC(N)=O)NC(=O)[C@@H]2CCCN2C(=O)[C@H](C(C)C)NC(=O)[C@@H](NC(=O)[C@H](CC(N)=O)NC(=O)CCCC[C@@H]2SC[C@@H]3NC(=O)N[C@@H]32)CSc2c(F)c(F)c(c(F)c2F)-c2c(F)c(F)c(c(F)c2F)SC[C@@H](C(=O)N[C@H](C(=O)N[C@@H](CCCCN)C(N)=O)[C@@H](C)O)NC(=O)[C@H](C)NC(=O)[C@H](C(C)C)NC(=O)[C@H](CCCCN)NC(=O)[C@H](CCC(N)=O)NC(=O)[C@H](C)NC(=O)[C@H](CC(C)C)NC(=O)[C@H](C(C)C)NC(=O)[C@H](CCC(N)=O)NC1=O [C2C19 DFBP],binding to parental K562 cells (in words),K562 cells,significantly bound to parental K562 cells at high concentrations
Biotin-CADVPNLRGDLQVLADQKVCRDTKDAD-NH2 (cysteine pairing not given here),cleaved bond,normal mouse serum; up to 24 h,"KD21-AD22, 24 h; also recorded: L6-Arg7, major"
same,fragment found,normal mouse serum; up to 24 h,"719: unidentified, 4 h"
Biotin-CAVPNLRGDLQVLAQKVCRTK-NH2 (cysteine pairing not given here),cleaved bond,normal mouse serum; up to 6 h,C18-arginine19
Biotin-CAVPNLRGDLQVLAQKVCRTK-NH2 (cysteine pairing not given here) [C1C18 DFBP],cleaved bond,normal mouse serum; up to 6 h,"C18-arginine19, 2 h"
Biotin-NCVPNLRGDLQVLAQKVCRDTKAD-NH2 (cysteine pairing not given here),cleaved bond,normal mouse serum; up to 24 h,"L6-Arg7, major, 8 h; also recorded: Arg7-G8, major, 8 h; also recorded: Asn1-C2, 24 h"
Biotin-NCVPNLRGDLQVLAQKVCRTK-NH2 (cysteine pairing not given here),cleaved bond,normal mouse serum; up to 6 h,"C18-arginine19, 2 h"
Biotin-NCVPNLRGDLQVLAQKVC[Cit]TKAD-NH2 (cysteine pairing not given here),cleaved bond,normal mouse serum; up to 24 h,"Thr20-K21, 12 h"
biotin-NCVPhNLRGDLQVLAQKVCRDTKAD-amide,cleaved bond,normal mouse serum; up to 24 h,"Asn1-C2, 24 h"
